Publication PMC5617480 (Oncotarget, 2017)

Legend:
[1] = test system: BEL-7404 xenograft; settings: BEL-7404 model, 5-Fu 20.0 mg/kg per two days iv
Method: In vivo anticancer efficacy of chiral platinum(II) complex 6 was evaluated using BEL-7404 and BEL-7402 xenograft mouse models. BEL-7404 and BEL-7402 cells were injected into nude mice. The mice were randomized into the control group, complex 6-treated group, and the positive control group (n = 6/group). When the volume of tumor was about 80 mm^3, complex 6 was given at a high (8 mg/kg) and low (4 mg/kg) dosage daily for 18 days, 5-FU (20 mg/kg every two days) and Cisplatin (2 mg/kg every two days) were used as a positive control in the BEL-7404 and BEL-7402 xenograft model, respectively.
To evaluate the vivo anticancer efficacy of complex 6, BEL-7404 and BEL-7402 xenograft mouse models (BALB/c nude mice, female for BEL-7404 model, 17–20 g, 6–7 weeks old; male for BEL-7402 model, 18-21 g, 6–7 weeks old) were used. Furthermore, animal used, maximum tolerated dose (MTD) analysis, acute toxicity studies and antitumor activity toward BEL-7404 and BEL-7402 models in vivo of complex 6, was similar to Chen reported.
H21T (3.5 pmol; 5’-G [T AG ] -3’), primer TS (18 pmol; tumor tissue were cut into about 1.5 mm3 small pieces, and […]
5’-[…]-3’), KCl (63 mM), then transplanted into the right flank of nude mice. When EGTA (1 mM), MgCl (1.5 mM), Tween-20 (0.005%), the average tumors reach a volume of about 80 mm3, the […]
primer NT (7.5 pmol; 5’-[…]-3’), mice were randomized into 4 groups (n=6), received the […]
TSNT internal control (0.01 amol; 5’-[…] following treatments: (a) control, received saline solvent; […]
-3’), primer (b) complex 6 at doses of 8.0 mg/kg daily (dissolve in […]
Cxext (22.5 pmol; 5’-[…] saline, iv); (c) complex 6 at doses of 4.0 mg/kg daily; […]
[…]-3’), Taq DNA polymerase (2.5 U), and (d) in BEL-7404 model, 5-fluorouracil (5-Fu) as positive telomerase (100 ng). Complexes or/and distilled water control at 20 mg/kg per two days (dissolve in saline, iv); was added ([…]). PCR was performed in an Eppendorf in BEL-7402 model, cisplatin as positive control at 2 mg/ Master cycler equipped with a hot lid and incubated for kg per two days (dissolve in saline, iv).
30.0 min at 30 °C, followed by 92 °C 30 s, 52 °C 30 s, The tumor volumes and body weight was monitored and 72°C 30 s for 30.0 cycles. After amplification, 8.0 every 3 days, The tumor volumes were estimated by […] loading buffer (5×TBE buffer, 0.2% xylene cyanol, measuring the two dimensions of the tumors using caliper and 0.2% bromophenol blue ) were added to the reaction. and calculated by the formula 1 [1, 6, 14]:
An […] of aliquot was loaded onto a nondenaturing V = (length × width2)/2(1) acrylamide gel (19:1, 16%) in 1×TBE buffer and resolved at 200.0 V for 1.0 h. Gels were fixed and then stained with On day 18, the mice were sacrificed, and tumor AgNO3 [8–11]. tissue were dissected out and weighted, tumor growth inhibition rate calculated using formulas 2 and 3 [1, 6,
In order to verify whether complexes 4–6 can TGI (%) = (ΔVc − ΔVt)/ΔVc×100%(2) directly regulate c-myc promoter (Pu27) and the IR(%) = (Wc − Wt)/Wc×100%(3) expression of hTRET in BEL-7404 cells, consequently Where ΔVt = tumor volumefinal −tumor volumeinitial inhibiting the telomerase function, we constructed EGFP for compound treated group, ΔVc=tumor volumefinal − and c-myc gene vectors according to those illustrated tumor volumeinitial for vehicle control group; Wt and Wc in Chalfie, Chen and He previous work. The detailed mean the average tumor weight of complex-treated and procedures for the construct of gene (c-myc and EGFP vehicle controlled group respectively. genes) vectors, and the method of transfection assays REFERENCES have been reported by Chalfie, Chen and He [1, 6, 9, 12,

[2] = test system: BEL-7404 cells; test: Cytotoxicity assay (MTT assay); type: cell-based, human; settings: BEL-7404, 100 μM
[3] = test system: Hep-G2 cells; test: Cytotoxicity assay (MTT assay); type: cell-based, human; settings: Hep-G2, 100 μM
[4] = test system: HeLa cells; test: Cytotoxicity assay (MTT assay); type: cell-based, human; settings: 100 μM
[5] = test system: A549 cells; test: Cytotoxicity assay (MTT assay); type: cell-based, human; settings: A549, 100 μM
[6] = test system: BEL-7402 cells; test: Cytotoxicity assay (MTT assay); type: cell-based, human; settings: BEL-7402, 100 μM
[7] = test system: MGC80-3 cells; test: Cytotoxicity assay (MTT assay); type: cell-based, human; settings: MGC80-3, 100 μM

O=c1[nH]cc(F)c(=O)[nH]1 [5-FU, 5-fluorouracil, reference compound]
Tumor volume (start) [1]: 75.95±25.57 mm3
Average tumor weight (mean ± SD g) ([1]; day 18): 0.47 ± 0.20 g
Tumor volume (end) ([1]; day 18): 576.17±297.34 mm3

C[S](C)(=O)[Pt]([Cl])([Cl])[S](C)(C)=O [cis-Pt(DMSO)2Cl2]
Inhibitory rates (%) ([2]; 24 h): 5.3 ± 1.5%
Inhibitory rates (%) ([2]; 48 h): 8.0 ± 0.7%
Inhibitory rates (%) ([3]; 24 h): 10.1 ± 0.4%
Inhibitory rates (%) ([3]; 48 h): 13.8 ± 0.7%
Inhibitory rates (%) ([4]; 24 h): 19.8 ± 0.7%
Inhibitory rates (%) ([4]; 48 h): 25.4 ± 1.2%
Inhibitory rates (%) ([5]; 24 h): 15.1 ± 1.7%
Inhibitory rates (%) ([5]; 48 h): 22.3 ± 0.5%
Inhibitory rates (%) ([6]; 24 h): 8.6 ± 2.4%
Inhibitory rates (%) ([6]; 48 h): 12.3 ± 0.4%
Inhibitory rates (%) ([7]; 24 h): 10.2 ± 1.3%
Inhibitory rates (%) ([7]; 48 h): 30.4 ± 0.8%
